Measurements reported in PubChem BioAssay AID248 (DTP/NCI, 2004).
“And” between values parts separate entries of the source, which are not always exact repeats. Identical values can stand only once. Toxic doses and inconclusive results are not listed.

System: L1210 leukemia ip in BDF1 mice, survival T/C
Assay: NCI In Vivo Anticancer Drug Screen. Data for tumor model L1210 Leukemia (intraperitoneal) in B6D2F1 (BDF1) mice
Conditions: endpoint: mean survival time, higher = longer survival
Outline: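 Mice bearing the transplanted tumor received compound or vehicle. Survival of the treated group was divided by that of the vehicle-treated control group to give the ratio.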

[1] = dose: 100.0 mg/kg/injection, schedule: Q01DX009 (ip), vehicle: Klucel (hydroxypropylcellulose) (HPC)
[2] = dose: 100.0 mg/kg/injection, schedule: Q04DX003 (ip), vehicle: Klucel (hydroxypropylcellulose) (HPC)
[3] = dose: 200.0 mg/kg/injection, schedule: Q01DX009 (ip), vehicle: Klucel (hydroxypropylcellulose) (HPC)
[4] = dose: 200.0 mg/kg/injection, schedule: Q04DX003 (ip), vehicle: Klucel (hydroxypropylcellulose) (HPC)
[5] = dose: 400.0 mg/kg/injection, schedule: Q01DX009 (ip), vehicle: Klucel (hydroxypropylcellulose) (HPC)
[6] = dose: 400.0 mg/kg/injection, schedule: Q04DX003 (ip), vehicle: Klucel (hydroxypropylcellulose) (HPC)
[7] = dose: 100.0 mg/kg/injection, schedule: Q01DX009 (ip), vehicle: saline with Tween-80
[8] = dose: 100.0 mg/kg/injection, schedule: Q04DX003 (ip), vehicle: saline with Tween-80
[9] = dose: 200.0 mg/kg/injection, schedule: Q01DX009 (ip), vehicle: saline with Tween-80
[10] = dose: 200.0 mg/kg/injection, schedule: Q04DX003 (ip), vehicle: saline with Tween-80
[11] = dose: 400.0 mg/kg/injection, schedule: Q01DX009 (ip), vehicle: saline with Tween-80
[12] = dose: 50.0 mg/kg/injection, schedule: Q01DX001 (ip), vehicle: carboxymethylcellulose (CMC)
[13] = dose: 100.0 mg/kg/injection, schedule: Q01DX001 (ip), vehicle: carboxymethylcellulose (CMC)
[14] = dose: 200.0 mg/kg/injection, schedule: Q04DX002 (ip), vehicle: saline with Tween-80
[15] = dose: 100.0 mg/kg/injection, schedule: Q01DX001 (ip), vehicle: saline
[16] = dose: 200.0 mg/kg/injection, schedule: Q01DX001 (ip), vehicle: saline
[17] = dose: 400.0 mg/kg/injection, schedule: Q01DX001 (ip), vehicle: saline
[18] = dose: 200.0 mg/kg/injection, schedule: Q01DX001 (ip), vehicle: carboxymethylcellulose (CMC)
[19] = dose: 400.0 mg/kg/injection, schedule: Q01DX001 (ip), vehicle: carboxymethylcellulose (CMC)

SMILES: Clc1ccc(N=Cc2ccccc2)cc1
- T/C [1]: 104 % of control
- T/C [2]: 95 % of control
- T/C [3]: 103 % of control
- T/C [4]: 96 % of control
- T/C [5]: 98 % of control
- T/C [6]: 104 % of control

SMILES: CCCCCCCCCCCCCCCCOP(=O)(O)OCCCCCCCCCCCCCCCC
- T/C (dose: 50.0 mg/kg/injection, schedule: Q01DX009 (ip), vehicle: saline with Tween-80): 98 % of control
- T/C [7]: 91 % of control
- T/C [8]: 105 % of control
- T/C [9]: 89 % of control
- T/C [10]: 90 % of control
- T/C [11]: 93 % of control
- T/C (dose: 400.0 mg/kg/injection, schedule: Q04DX003 (ip), vehicle: saline with Tween-80): 95 % of control

SMILES: CCCCCCCCCCCCCCCC[n+]1ccc(/C=C/c2ccccc2)cc1
- T/C (dose: 2.5 mg/kg/injection, schedule: Q01DX001 (ip), vehicle: carboxymethylcellulose (CMC)): 116 % of control
- T/C (dose: 5.0 mg/kg/injection, schedule: Q01DX001 (ip), vehicle: carboxymethylcellulose (CMC)): 121 % of control
- T/C (dose: 10.0 mg/kg/injection, schedule: Q01DX001 (ip), vehicle: carboxymethylcellulose (CMC)): 116 % of control

SMILES: CC1C(C(=O)O)CC([N+](=O)[O-])C(Cl)C1[N+](=O)[O-] (stereo not drawn)
- T/C (dose: 25.0 mg/kg/injection, schedule: Q01DX001 (ip), vehicle: carboxymethylcellulose (CMC)): 92 % of control
- T/C (dose: 25.0 mg/kg/injection, schedule: Q04DX003 (ip), vehicle: carboxymethylcellulose (CMC)): 95 % of control
- T/C [12]: 97 % of control
- T/C (dose: 50.0 mg/kg/injection, schedule: Q01DX009 (ip), vehicle: carboxymethylcellulose (CMC)): 95 % of control and 102 % of control
- T/C (dose: 50.0 mg/kg/injection, schedule: Q04DX003 (ip), vehicle: carboxymethylcellulose (CMC)): 98 % of control
- T/C [13]: 102 % of control
- T/C (dose: 100.0 mg/kg/injection, schedule: Q01DX009 (ip), vehicle: carboxymethylcellulose (CMC)): 90 % of control
- T/C (dose: 100.0 mg/kg/injection, schedule: Q04DX002 (ip), vehicle: carboxymethylcellulose (CMC)): 101 % of control and 91 % of control
- T/C (dose: 100.0 mg/kg/injection, schedule: Q04DX003 (ip), vehicle: carboxymethylcellulose (CMC)): 102 % of control
- T/C (dose: 200.0 mg/kg/injection, schedule: Q04DX002 (ip), vehicle: carboxymethylcellulose (CMC)): 92 % of control and 105 % of control

SMILES: O=[N+]([O-])c1ccc(Oc2ccc(C3N(c4ccccc4)CCN3c3ccccc3)cc2)c([N+](=O)[O-])c1
- T/C (dose: 25.0 mg/kg/injection, schedule: Q01DX009 (ip), vehicle: water): 91 % of control
- T/C (dose: 50.0 mg/kg/injection, schedule: Q01DX009 (ip), vehicle: water): 91 % of control
- T/C (dose: 100.0 mg/kg/injection, schedule: Q01DX009 (ip), vehicle: water): 86 % of control
- T/C (dose: 200.0 mg/kg/injection, schedule: Q01DX009 (ip), vehicle: water): 91 % of control
- T/C (dose: 400.0 mg/kg/injection, schedule: Q01DX009 (ip), vehicle: water): 86 % of control

SMILES: Cc1cccc(NC=O)c1
- T/C [7]: 100 % of control
- T/C [8]: 97 % of control
- T/C [9]: 98 % of control
- T/C [10]: 102 % of control
- T/C [11]: 99 % of control

SMILES: CC(=O)Nc1ccc(/C=N\NC(=O)C2CC2)cc1
- T/C [2]: 100 % of control
- T/C [4]: 87 % of control
- T/C [6]: 87 % of control

SMILES: CC(=O)N(N=Nc1ccccc1)c1cccc2ccccc12
- T/C [1]: 116 % of control
- T/C [2]: 108 % of control
- T/C [3]: 96 % of control
- T/C [4]: 109 % of control
- T/C [6]: 108 % of control

SMILES: CC(C)c1ccc(NCN2C(=O)c3ccccc3C2=O)cc1
- T/C [1]: 100 % of control
- T/C [3]: 103 % of control
- T/C [5]: 101 % of control

SMILES: NCc1ccc[n+]([O-])c1
- T/C (dose: 12.5 mg/kg/injection, schedule: Q04DX002 (ip), vehicle: saline with Tween-80): 97 % of control
- T/C (dose: 25.0 mg/kg/injection, schedule: Q04DX002 (ip), vehicle: saline with Tween-80): 105 % of control
- T/C (dose: 50.0 mg/kg/injection, schedule: Q04DX002 (ip), vehicle: saline with Tween-80): 102 % of control and 118 % of control
- T/C [14]: 89 % of control

SMILES: Cc1cccc(C)c1N=C/C=C/c1ccccc1
- T/C [1]: 100 % of control
- T/C [3]: 88 % of control
- T/C [5]: 102 % of control

SMILES: CC(O)c1cccc(Br)c1 (stereo not drawn)
- T/C (dose: 100.0 mg/kg/injection, schedule: Q04DX002 (ip), vehicle: saline with Tween-80): 100 % of control
- T/C [14]: 90 % of control
- T/C (dose: 400.0 mg/kg/injection, schedule: Q04DX002 (ip), vehicle: saline with Tween-80): 90 % of control

SMILES: CCCCCCCCCCCCSc1nccnc1C
- T/C (dose: 50.0 mg/kg/injection, schedule: Q01DX009 (ip), vehicle: Klucel (hydroxypropylcellulose) (HPC)): 113 % of control
- T/C [1]: 106 % of control
- T/C [3]: 92 % of control

SMILES: NNC(=O)C12CCCCC1CCC2 (stereo not drawn)
- T/C (dose: 100.0 mg/kg/injection, schedule: Q01DX009 (ip), vehicle: acetone): 88 % of control
- T/C (dose: 100.0 mg/kg/injection, schedule: Q04DX003 (ip), vehicle: acetone): 100 % of control
- T/C (dose: 200.0 mg/kg/injection, schedule: Q04DX003 (ip), vehicle: acetone): 100 % of control
- T/C (dose: 400.0 mg/kg/injection, schedule: Q01DX009 (ip), vehicle: acetone): 87 % of control
- T/C (dose: 400.0 mg/kg/injection, schedule: Q04DX003 (ip), vehicle: acetone): 105 % of control

SMILES: C=[CH][Sn]([c]1ccccc1)([c]1ccccc1)[c]1ccccc1
- T/C (dose: 50.0 mg/kg/injection, schedule: Q01DX009 (ip), vehicle: saline): 92 % of control and 104 % of control and 109 % of control
- T/C (dose: 100.0 mg/kg/injection, schedule: Q01DX009 (ip), vehicle: saline): 106 % of control and 114 % of control and 89 % of control
- T/C (dose: 200.0 mg/kg/injection, schedule: Q01DX009 (ip), vehicle: saline): 96 % of control and 101 % of control (2×)

SMILES: CCC(/C=N/NC(N)=O)c1ccccc1OC (stereo not drawn)
- T/C [15]: 96 % of control
- T/C [16]: 104 % of control
- T/C [17]: 109 % of control

SMILES: CN=C(NC)N(C)/N=C/C(C)=N/N(C)C(=NC)NC
- T/C (dose: 15.0 mg/kg/injection, schedule: Q01DX Z (ip), vehicle: methylcellulose (MC)): 95 % of control
- T/C (dose: 30.0 mg/kg/injection, schedule: Q01DX Z (ip), vehicle: methylcellulose (MC)): 101 % of control
- T/C (dose: 60.0 mg/kg/injection, schedule: Q01DX Z (ip), vehicle: methylcellulose (MC)): 101 % of control
- T/C (dose: 60.0 mg/kg/injection, schedule: Q01DX Z (oral), vehicle: methylcellulose (MC)): 104 % of control
- T/C (dose: 120.0 mg/kg/injection, schedule: Q01DX Z (oral), vehicle: methylcellulose (MC)): 93 % of control
- T/C (dose: 240.0 mg/kg/injection, schedule: Q01DX Z (oral), vehicle: methylcellulose (MC)): 91 % of control
- T/C (dose: 480.0 mg/kg/injection, schedule: Q01DX Z (oral), vehicle: methylcellulose (MC)): 110 % of control
- T/C (dose: 720.0 mg/kg/injection, schedule: Q01DX Z (oral), vehicle: methylcellulose (MC)): 108 % of control

SMILES: CC(=O)Nc1ncc(Oc2ccc(Cl)cc2Cl)c(=O)[nH]1
- T/C [12]: 102 % of control
- T/C [13]: 119 % of control
- T/C [18]: 96 % of control
- T/C [19]: 102 % of control

SMILES: NC(=S)c1cn(C2OC(CO)C(O)C2O)c2ncncc12 (stereo not drawn)
- T/C (dose: 100.0 mg/kg/injection, schedule: Q01DX005 (ip), vehicle: saline): 164 % of control
- T/C (dose: 200.0 mg/kg/injection, schedule: Q01DX005 (ip), vehicle: saline): 167 % of control

SMILES: O=c1c2cn[nH]c2nc2ccccn12
- T/C [15]: 96 % of control
- T/C [16]: 94 % of control
- T/C [17]: 94 % of control

SMILES: CCCCC(SC(CC)(C(C)=O)c1ccccc1)C(N)=O (stereo not drawn)
- T/C [13]: 102 % of control
- T/C [18]: 113 % of control
- T/C [19]: 96 % of control

SMILES: Cc1ccc(S(=O)(=O)NNS(=O)(=O)c2ccc(C)cc2)cc1
- T/C (dose: 100.0 mg/kg/injection, schedule: Q01DX001 (ip), vehicle: Klucel (hydroxypropylcellulose) (HPC)): 109 % of control
- T/C (dose: 200.0 mg/kg/injection, schedule: Q01DX001 (ip), vehicle: Klucel (hydroxypropylcellulose) (HPC)): 109 % of control
